# Assay results as given in paper PMC11313193, “Which Constituents Determine the Antioxidant Activity and Cytotoxicity of Garlic? Role of Organosulfur Compounds and Phenolics” (International Journal of Molecular Sciences, 2024).
# Like-named read-outs stand apart in the source and are kept apart here.
# Columns and labels:
# [1] = system: HeLa cervical cancer cells; design: method as in PMID 24843386; settings: range given for HeLa and HTB-35, converted; cited from earlier work
# [2] = Ferric reducing antioxidant power (FRAP) assay; settings: 30 min at ambient temperature, pH 3.6, absorbance at 593 nm
# Protocol: The method proposed by Benzie and Strain [91] was employed with a slight modification. Briefly, increasing volumes of solutions of the studied compounds were added to wells of a 96-well microplate prefilled with 200 μL of the working solution composed of 0.3 M acetate buffer, pH 3.6 (10 volumes), 10 mM 2,4,6-tris(2-pyridyl)-s-triazine (TPTZ), in 40 mM HCl (1 volume) and 20 mM FeCl3 (1 volume), was prepared immediately before use. After 30 min incubation at ambient temperature and the absorbance of the Fe^2+-TPTZ complex was read at 593 nm.
# (§1) All assays were standardized with respect to Trolox. The antioxidant activity was calculated in each case as a ratio of the slope of the dependence of absorbance change on the concentration of a studied compound to the slope of the dependence of absorbance change of standard samples concerning Trolox on the concentration of Trolox. Antioxidant activities were expressed in moles of Trolox equivalents (TE)/mol of a studied compound, as described previously.
# [3] = DPPH^● decolorization assay; settings: 30 min at ambient temperature in the dark, absorbance at 517 nm
# Protocol: The assay was performed as described in a previous article. Briefly, increasing volumes of solutions of the studied compounds were introduced to wells of a 96-well microplate, each with 200 μL of 0.3 mM DPPH^● solution in methanol. The reaction was allowed to proceed for 30 min at ambient temperature in the dark, and absorbance at 517 nm was read. The absorbance decrease was a measure of the antioxidant activity.
# as §1
# [4] = system: HL-60RG human promyelocytic leukemia cells; design: method as in PMID 8593472; settings: cited from earlier work
# [5] = system: P388-D1 mouse lymphoid cancer cells; design: method as in PMID 8593472; settings: cited from earlier work
# [6] = system: dRLh-84 rat hepatoma cells; design: method as in PMID 8593472; settings: cited from earlier work
# MRC-5 fibroblasts = assay: Cytotoxicity (Neutral Red), MRC-5 fibroblasts; format: cell-based, human; settings: for IC50: Homo sapiens, read-out: IC50 MRC-5
# Protocol: (§2) The PEO1 cells, SKOV-3 cells, and MRC-5 cells were grown at 37 °C and 5% CO2 in RPMI + GlutaMAX medium, McCoy’s 5A medium, and the DMEM + GlutaMAX medium, respectively. The media were supplemented with 10% heat-inactivated fetal calf serum and penicillin/streptomycin. The cell viability was evaluated using the Trypan Blue exclusion test.
# (§3) In the cytotoxicity experiments, cells were grown in wells of sterile 96-well plates. The seeding density was 1 × 10^4 for SKOV-3 and MRC-5 cells and 1.5 × 10^4 for PEO1 cells. The cells were allowed to grow in the incubator for 24 h. Then, the medium was removed and new medium with an examined compound was added. The stock solutions of the compounds studied diluted with the appropriate cell medium were filtered before the addition to the cells using 0.22 µm filters. No more than 0.02% of DMSO was present in the media, and it had no discernible impact on the treated cells. Cells not exposed to any compound served as a control. After another 24 h incubation, the medium was gently aspirated, and the wells were added with 2% sterile Neutral Red solution (100 µL). The plates were then incubated (37 °C, 5% CO2) for one hour. The Neutral Red solution was aspirated, and the wells were washed two times with warm (37 °C) PBS. Subsequently, 100 µL of a permeabilization mixture (water/ethanol/glacial acetic acid, 50/49/1, v/v/v) was introduced to each well. The plates were shaken at 700 rpm for 20 min and absorbance was read at a wavelength of 540 nm against 620 nm.
# [7] = ABTS^● decolorization assay; settings: 30 min incubation at room temperature, absorbance at 734 nm
# Protocol: A modification of the ABTS^● decolorization assay was employed. Briefly, various volumes of solutions of the studied compounds were introduced to wells of a 96-well microplate, each prefilled 200 μL of ABTS^● solution. […] The drop in absorbance after 30 min incubation at room temperature was read as a measure of the antioxidant activity.
# as §1
# [8] = system: HTB-35 cervical cancer cells; design: method as in PMID 24843386; settings: range given for HeLa and HTB-35, converted; cited from earlier work
# [9] = system: HeLa human epithelial carcinoma cells; design: method as in PMID 8593472; settings: cited from earlier work
# [10] = system: SKOV-3 ovarian cancer cells; assay: Cytotoxicity (Neutral Red), SKOV-3 cells; format: cell-based, human; settings: for Concentration at which viability of SKOV-3 cells was lowered: p < 0.05; for IC50: Homo sapiens, read-out: IC50 SKOV-3
# Protocol: as §2, §3
# [11] = system: DUI45 prostate cancer cells; design: method as in PMID 19589639; settings: 48 h exposure, cited from earlier work
# [12] = system: LNCaP prostate cancer cells; design: method as in PMID 19589639; settings: 48 h exposure, cited from earlier work
# [13] = system: PEO1 ovarian cancer cells; assay: Cytotoxicity (Neutral Red), PEO1 cells; format: cell-based, human; settings: for Concentration at which viability of PEO1 cells was lowered: p < 0.05; for IC50: Homo sapiens, read-out: IC50 PEO1
# Protocol: as §2, §3
# [14] = system: PLC/PRF/5 human hepatoma cells; design: method as in PMID 8593472; settings: cited from earlier work
# [15] = system: PC-3 prostate cancer cells; design: method as in PMID 19589639; settings: 48 h exposure, cited from earlier work
# [16] = system: KB human epidermoid carcinoma cells; design: method as in PMID 8593472; settings: cited from earlier work
# [17] = system: colorectal cancer SW-620 cells; design: method as in PMID 25829782; settings: cited from earlier work
# [18] = system: NUGC-2 gastric cancer cell line; design: method as in PMID 2298289; settings: range given for four gastric cancer cell lines; read-out: IC50 NUGC-2 gastric cancer cells; cited from earlier work
# [19] = system: MKN-7 gastric cancer cell line; design: method as in PMID 2298289; settings: range given for four gastric cancer cell lines; read-out: IC50 MKN-7 gastric cancer cells; cited from earlier work
# [20] = system: A549 human adenocarcinomic alveolar basal epithelial cells; design: method as in PMID 14688022; settings: cited from earlier work
# [21] = system: HGC-27 gastric cancer cell line; design: method as in PMID 2298289; settings: range given for four gastric cancer cell lines; read-out: IC50 HGC-27 gastric cancer cells; cited from earlier work
# [22] = system: MKN-28 gastric cancer cell line; design: method as in PMID 2298289; settings: range given for four gastric cancer cell lines; read-out: IC50 MKN-28 gastric cancer cells; cited from earlier work
# [23] = system: colorectal cancer CACO-2 cells; design: method as in PMID 25829782; settings: cited from earlier work
# [24] = system: breast cancer HCC1937 cells; design: method as in PMID 16619521; settings: 100 μM; cited from earlier work
# MCF-7 cells = system: MCF-7 cells; design: method as in PMID 24223637; settings: 40 μg/mL (132 μM); cited from earlier work
compound,measurement,setting,value
"O=C(O)c1cc(O)c(O)c(O)c1 [Gallic acid, gallic acid]",IC50,[1],111 to 139 µM
same,"Antioxidant activity, FRAP",[2],0.332 ± 0.001 mol Trolox equivalents (TE)/mol compound
same,"Antioxidant activity, DPPH^● Decolorization",[3],0.178 ± 0.023 mol Trolox equivalents (TE)/mol compound
same,IC50 HL-60RG cells,[4],5.4 µg/mL
same,IC50,[4]; converted from μg/mL,30 µM
same,IC50 P388-D1 cells,[5],4.8 µg/mL
same,IC50,[5]; converted from μg/mL,27 µM
same,IC50 dRLh-84 cells,[6],6.2 µg/mL
same,IC50,[6]; converted from μg/mL,34 µM
same,Concentration at which viability of MRC-5 cells was lowered,"MRC-5 fibroblasts; 24 h exposure, p < 0.05",200 to 1000 µM
same,IC50,"MRC-5 fibroblasts; MRC5, 24 h exposure, Neutral Red",243 µM
same,"Antioxidant activity, ABTS^● Decolorization",[7],0.972 ± 0.028 mol Trolox equivalents (TE)/mol compound
same,IC50,[8],111 to 139 µM
same,IC50 HeLa cells,[9],6.1 µg/mL
same,IC50,[9]; converted from μg/mL,34 µM
same,Concentration at which viability of SKOV-3 cells was lowered,[10]; 24 h exposure,200 to 1000 µM
same,IC50,"[10]; SK-OV-3, 24 h exposure, Neutral Red",115 µM
same,IC50,[11]; converted,89 µM
same,IC50 DUI45 prostate cancer cells,[11],16 µg/mL
same,IC50,[12]; converted,117 µM
same,IC50 LNCaP prostate cancer cells,[12],21 µg/mL
same,Concentration at which viability of PEO1 cells was lowered,[13]; 24 h exposure,200 to 1000 µM
same,IC50,"[13]; PEO1, 24 h exposure, Neutral Red",19 µM
same,IC50 PLC/PRF/5 cells,[14],6.6 µg/mL
same,IC50,[14]; converted from μg/mL,37 µM
same,IC50,[15]; converted,89 µM
same,IC50 PC-3 prostate cancer cells,[15],16 µg/mL
same,IC50 KB cells,[16],13.2 µg/mL
same,IC50,[16]; converted from μg/mL,73 µM
O=c1c(O)c(-c2ccc(O)c(O)c2)oc2cc(O)cc(O)c12 [Quercetin],IC50,[17],20 µM
same,"Antioxidant activity, FRAP",[2],1.350 ± 0.201 mol Trolox equivalents (TE)/mol compound
same,IC50,[18],32 to 55 µM
same,"Antioxidant activity, DPPH^● Decolorization",[3],0.384 ± 0.040 mol Trolox equivalents (TE)/mol compound
same,Concentration range with no significant decrease in viability of MRC-5 cells,MRC-5 fibroblasts; 24 h exposure,up to 200 µM
same,IC50,"MRC-5 fibroblasts; MRC5, 24 h",111 µM
same,IC50,[19],32 to 55 µM
same,IC50,[20],~40 µM
same,"Antioxidant activity, ABTS^● Decolorization",[7],1.138 ± 0.029 mol Trolox equivalents (TE)/mol compound
same,IC50,[21],32 to 55 µM
same,Concentration at which viability of SKOV-3 cells was lowered,[10]; 24 h exposure,75 to 200 µM
same,IC50,"[10]; SK-OV-3, 24 h",272 µM
same,Concentration at which viability of PEO1 cells was lowered,[13]; 24 h exposure,75 to 200 µM
same,IC50,"[13]; PEO1, 24 h",100 µM
same,IC50,[22],32 to 55 µM
same,IC50,[23],35 µM
same,Viability of HCC1937 cells (diminished to),[24],ca. 40%
same,Viability of MCF-7 cells (diminished to),MCF-7 cells,ca. 70%
